What was measured:
[1] = Stability of compound assessed as Poxin (unknown origin) mediated compound degradation at 300 uM and measured after 3 hrs by HPLC analysis; type: ADME
[2] = Stability of compound at 95 degreeC incubated for 5 mins by HPLC analysis; type: physicochemical
[3] = molecular target: T1, Stimulator of interferon genes protein (Homo sapiens, UniProt Q86WV6); assay: Agonist activity at STING in wildtype human THP1-Dual cells assessed as IRF activation incubated for 24 hrs by QUANTI-Luc reagent based luminescence assay; type: cell-based
[4] = molecular target: T2, Ectonucleotide pyrophosphatase/phosphodiesterase family member 1 (Homo sapiens, UniProt P22413); assay: Stability of compound assessed as ENPP1 (unknown origin) mediated compound degradation at 300 uM measured upto 24 hrs by HPLC analysis; type: ADME
T2 sequence (P22413 whole entry): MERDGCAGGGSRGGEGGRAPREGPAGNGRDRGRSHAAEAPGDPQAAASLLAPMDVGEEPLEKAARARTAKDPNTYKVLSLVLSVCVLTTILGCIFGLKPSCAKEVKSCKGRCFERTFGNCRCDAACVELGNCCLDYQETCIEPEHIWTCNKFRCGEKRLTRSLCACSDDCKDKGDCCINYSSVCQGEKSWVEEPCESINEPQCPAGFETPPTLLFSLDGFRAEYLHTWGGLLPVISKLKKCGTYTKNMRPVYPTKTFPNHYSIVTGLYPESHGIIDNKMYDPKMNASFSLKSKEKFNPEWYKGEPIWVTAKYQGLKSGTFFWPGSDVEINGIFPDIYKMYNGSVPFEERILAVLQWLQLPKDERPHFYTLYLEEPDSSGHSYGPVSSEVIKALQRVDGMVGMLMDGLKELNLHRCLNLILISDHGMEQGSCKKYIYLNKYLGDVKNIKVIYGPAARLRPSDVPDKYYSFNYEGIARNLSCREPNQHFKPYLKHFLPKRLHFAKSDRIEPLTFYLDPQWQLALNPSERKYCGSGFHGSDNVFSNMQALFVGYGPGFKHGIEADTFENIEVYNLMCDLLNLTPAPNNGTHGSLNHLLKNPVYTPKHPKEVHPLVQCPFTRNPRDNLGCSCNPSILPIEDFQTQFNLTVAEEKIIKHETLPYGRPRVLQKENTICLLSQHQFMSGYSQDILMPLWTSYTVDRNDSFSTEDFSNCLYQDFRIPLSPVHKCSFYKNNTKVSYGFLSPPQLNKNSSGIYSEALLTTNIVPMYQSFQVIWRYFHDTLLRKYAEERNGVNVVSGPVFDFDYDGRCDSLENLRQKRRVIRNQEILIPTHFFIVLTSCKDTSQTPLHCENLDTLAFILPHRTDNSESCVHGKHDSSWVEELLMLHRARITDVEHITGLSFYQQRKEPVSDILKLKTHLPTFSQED

[5] = molecular target: T1, Stimulator of interferon genes protein; assay: Displacement of 2'-Fluo-AHC-c-di-GMP from wildtype human STING expressed in Escherichia coli BL21 (DE3) incubated for 5 mins by fluorescence polarization assay
[6] = molecular target: T1, Stimulator of interferon genes protein; assay: Agonist activity at STING in human THP1-Dual KI-hSTING-R232 cells assessed as IRF activation incubated for 24 hrs by QUANTI-Luc reagent based luminescence assay; type: cell-based
[7] = molecular target: T1, Stimulator of interferon genes protein
Description: Binding affinity to wildtype human STING expressed in Escherichia coli BL21 (DE3) assessed as thermal stability by measuring increase in melting temperature by differential scanning fluorimetry analysis

[8] = Stability of compound assessed as Poxin (unknown origin) mediated compound degradation at 300 uM and measured after 24 hrs by HPLC analysis; type: ADME
[9] = Stability of compound assessed as Poxin (unknown origin) mediated compound degradation at 300 uM and measured after 30 mins by HPLC analysis; type: ADME; details: 0.5 h

T1 sequence (Q86WV6 whole entry): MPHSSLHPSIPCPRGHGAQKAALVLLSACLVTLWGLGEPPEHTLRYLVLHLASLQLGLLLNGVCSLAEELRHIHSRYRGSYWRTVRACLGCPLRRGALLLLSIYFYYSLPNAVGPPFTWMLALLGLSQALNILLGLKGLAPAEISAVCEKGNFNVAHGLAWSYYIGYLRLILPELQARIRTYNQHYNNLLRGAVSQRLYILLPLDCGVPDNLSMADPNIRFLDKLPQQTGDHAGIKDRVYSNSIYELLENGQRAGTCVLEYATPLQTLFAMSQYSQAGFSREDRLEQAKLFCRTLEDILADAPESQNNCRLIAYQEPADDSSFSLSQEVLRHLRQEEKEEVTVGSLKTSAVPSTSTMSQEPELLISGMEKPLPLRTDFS

| SMILES | Stability [1] | Stability [2] | EC50 [3] [µM] | Stability [4] | IC50 [5] [µM] | EC50 [6] [µM] | ΔTm [7] [°C] | Stability [8] | Stability [9] |
| --- | --- | --- | --- | --- | --- | --- | --- | --- | --- |
| CCN(CC)CC.CCN(CC)CC.Nc1nc2c(ncn2[C@@H]2O[C@@H]3COP(=O)(O)O[C@H]4[C@@H](O)[C@H](n5cnc6c(N)ncnc65)O[C@@H]4CSP(=O)(O)O[C@@H]2[C@@H]3O)c(=O)[nH]1 | Unstable | Stable | 27.2 | Stable | 18.6 | 27.4 | 8.2 |  |  |
| CCN(CC)CC.CCN(CC)CC.Nc1nc2c(ncn2[C@@H]2O[C@@H]3COP(=O)(O)O[C@H]4[C@@H](F)[C@H](n5cnc6c(N)ncnc65)O[C@@H]4CSP(=O)(O)O[C@@H]2[C@@H]3O)c(=O)[nH]1 |  | Stable |  | Stable |  |  |  | Stable |  |
| Nc1nc2c(ncn2[C@@H]2O[C@@H]3COP(=O)(O)O[C@H]4[C@@H](O)[C@H](n5cnc6c(N)ncnc65)O[C@@H]4COP(=O)(O)O[C@@H]2[C@@H]3O)c(=O)[nH]1 |  | Stable |  | Unstable |  |  |  |  | Unstable |
| Nc1nc2c(ncn2[C@@H]2O[C@@H]3COP(=O)(O)O[C@H]4C[C@H](n5cnc6c(N)ncnc65)O[C@@H]4CSP(=O)(O)O[C@@H]2[C@@H]3O)c(=O)[nH]1 |  |  | 37 |  | 7.87 | 16.4 |  |  |  |

— ChEMBL document CHEMBL5532694, “PDE-stable 2'3'-cGAMP analogues, containing 5'-S-phosphorothioester linkage, as STING agonists” (RSC Med Chem, 2024)
